Measurements as given in the kinase profiling compilation of Christmann-Franck et al. (2016).
Where “and” joins values, the source holds several entries; their conditions need not be identical. Identical values can stand only once.

Legend:
Assay in all cases: KINOMEscan competition binding
Conditions in all cases: compound 10.0 µM
[1] = biological target: ADCK3 (human) (UniProt Q8NI60)
[2] = biological target: BRSK2 (human) (UniProt Q8IWQ3)
[3] = biological target: CDK14 (human) (UniProt O94921)
[4] = biological target: CDK15 (human) (UniProt Q96Q40)
[5] = biological target: CDK16 (human) (UniProt Q00536)
[6] = biological target: CDK18 (human) (UniProt Q07002)
[7] = biological target: CDKL1 (human) (UniProt Q00532)
[8] = biological target: CIT (human) (UniProt O14578)
[9] = biological target: CSF1R (human) (UniProt P07333)
[10] = biological target: CSK (human) (UniProt P41240)
[11] = biological target: CSNK1A1 (human) (UniProt P48729)
[12] = biological target: CSNK1D (human) (UniProt P48730)
[13] = biological target: EPHA5 (human) (UniProt P54756)
[14] = biological target: MAK (human) (UniProt P20794)
[15] = biological target: MAP2K7 (human) (UniProt O14733)
[16] = biological target: MAP3K4 (human) (UniProt Q9Y6R4)
[17] = biological target: MAP3K6 (human) (UniProt O95382)
[18] = biological target: MAP3K7 (human) (UniProt O43318)
[19] = biological target: MAPK13 (human) (UniProt O15264)
[20] = biological target: MAPK14 (human) (UniProt Q16539)
[21] = biological target: MAPK7 (human) (UniProt Q13164)
[22] = biological target: MYO3B (human) (UniProt Q8WXR4)
[23] = biological target: PAK6 (human) (UniProt Q9NQU5)
[24] = biological target: PDGFRB (human) (UniProt P09619)
[25] = biological target: PI4KB (human) (UniProt Q9UBF8)
[26] = biological target: PIK3CA (human) (UniProt P42336)
[27] = biological target: PIK3CB (human) (UniProt P42338)
[28] = biological target: PLK3 (human) (UniProt Q9H4B4)
[29] = biological target: PTK2B (human) (UniProt Q14289)
[30] = biological target: PTK6 (human) (UniProt Q13882)
[31] = biological target: RAF1 (human) (UniProt P04049)
[32] = biological target: RPS6KA1 KD2 (human) (UniProt Q15418)
[33] = biological target: STK32A (human) (UniProt Q8WU08)
[34] = biological target: STK33 (human) (UniProt Q9BYT3)
[35] = biological target: TAOK1 (human) (UniProt Q7L7X3)
[36] = biological target: TNK2 (human) (UniProt Q07912)
[37] = biological target: TNNI3K (human) (UniProt Q59H18)
[38] = biological target: TXK (human) (UniProt P42681)
[39] = biological target: TYRO3 (human) (UniProt Q06418)
[40] = biological target: ULK1 (human) (UniProt O75385)

Sequence of CSF1R (human) (P07333 whole entry, looked up): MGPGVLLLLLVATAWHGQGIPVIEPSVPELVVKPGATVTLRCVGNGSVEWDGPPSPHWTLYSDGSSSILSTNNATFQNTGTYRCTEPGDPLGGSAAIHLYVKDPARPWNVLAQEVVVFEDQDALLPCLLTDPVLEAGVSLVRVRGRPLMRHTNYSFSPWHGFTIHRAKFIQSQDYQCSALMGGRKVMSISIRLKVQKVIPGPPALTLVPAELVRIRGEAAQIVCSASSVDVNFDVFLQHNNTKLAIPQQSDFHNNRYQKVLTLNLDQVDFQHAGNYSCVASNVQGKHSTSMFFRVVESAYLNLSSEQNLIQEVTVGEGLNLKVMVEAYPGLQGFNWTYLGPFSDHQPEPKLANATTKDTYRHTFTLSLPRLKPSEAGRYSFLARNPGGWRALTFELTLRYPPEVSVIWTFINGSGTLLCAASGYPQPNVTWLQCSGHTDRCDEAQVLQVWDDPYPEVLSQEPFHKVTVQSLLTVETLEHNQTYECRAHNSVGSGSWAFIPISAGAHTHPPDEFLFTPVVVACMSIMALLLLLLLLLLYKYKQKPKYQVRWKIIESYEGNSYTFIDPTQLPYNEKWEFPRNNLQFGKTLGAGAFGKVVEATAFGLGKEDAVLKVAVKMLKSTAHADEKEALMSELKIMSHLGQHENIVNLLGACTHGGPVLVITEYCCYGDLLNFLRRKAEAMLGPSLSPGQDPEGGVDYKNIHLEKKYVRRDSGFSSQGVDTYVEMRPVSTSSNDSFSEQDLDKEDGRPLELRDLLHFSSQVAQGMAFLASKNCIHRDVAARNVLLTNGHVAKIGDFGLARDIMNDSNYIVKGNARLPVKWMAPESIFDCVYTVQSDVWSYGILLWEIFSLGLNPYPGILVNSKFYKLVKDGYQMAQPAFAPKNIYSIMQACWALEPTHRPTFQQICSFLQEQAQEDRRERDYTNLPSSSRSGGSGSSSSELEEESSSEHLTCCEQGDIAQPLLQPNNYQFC
Sequence of PTK2B (human) (Q14289 whole entry, looked up): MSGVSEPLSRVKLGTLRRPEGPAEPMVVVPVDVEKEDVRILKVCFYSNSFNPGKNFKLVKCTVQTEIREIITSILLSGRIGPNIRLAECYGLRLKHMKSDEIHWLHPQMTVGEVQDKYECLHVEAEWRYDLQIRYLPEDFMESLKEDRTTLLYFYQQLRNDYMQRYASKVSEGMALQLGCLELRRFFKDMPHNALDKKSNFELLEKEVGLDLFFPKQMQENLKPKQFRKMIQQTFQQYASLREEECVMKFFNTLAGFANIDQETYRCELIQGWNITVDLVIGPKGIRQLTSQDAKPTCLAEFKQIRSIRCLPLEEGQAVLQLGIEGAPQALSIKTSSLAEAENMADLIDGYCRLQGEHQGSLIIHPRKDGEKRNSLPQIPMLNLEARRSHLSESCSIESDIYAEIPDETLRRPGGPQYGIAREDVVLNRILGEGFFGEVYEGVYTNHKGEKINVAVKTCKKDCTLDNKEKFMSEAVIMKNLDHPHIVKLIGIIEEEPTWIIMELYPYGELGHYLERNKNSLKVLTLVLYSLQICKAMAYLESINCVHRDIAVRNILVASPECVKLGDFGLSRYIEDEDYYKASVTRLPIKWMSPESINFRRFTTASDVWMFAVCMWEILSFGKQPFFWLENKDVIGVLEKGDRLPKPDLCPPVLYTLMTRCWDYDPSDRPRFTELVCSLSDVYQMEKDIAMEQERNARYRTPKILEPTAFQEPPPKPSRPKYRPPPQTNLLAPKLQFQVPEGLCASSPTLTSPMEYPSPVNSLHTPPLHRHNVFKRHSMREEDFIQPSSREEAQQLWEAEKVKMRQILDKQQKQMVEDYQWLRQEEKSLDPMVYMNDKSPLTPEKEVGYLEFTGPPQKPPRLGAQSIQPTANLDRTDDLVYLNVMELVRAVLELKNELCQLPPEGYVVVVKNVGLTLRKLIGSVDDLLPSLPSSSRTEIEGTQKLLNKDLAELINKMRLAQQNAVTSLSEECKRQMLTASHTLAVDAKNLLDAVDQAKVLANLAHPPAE
Sequence of TNK2 (human) (Q07912 whole entry, looked up): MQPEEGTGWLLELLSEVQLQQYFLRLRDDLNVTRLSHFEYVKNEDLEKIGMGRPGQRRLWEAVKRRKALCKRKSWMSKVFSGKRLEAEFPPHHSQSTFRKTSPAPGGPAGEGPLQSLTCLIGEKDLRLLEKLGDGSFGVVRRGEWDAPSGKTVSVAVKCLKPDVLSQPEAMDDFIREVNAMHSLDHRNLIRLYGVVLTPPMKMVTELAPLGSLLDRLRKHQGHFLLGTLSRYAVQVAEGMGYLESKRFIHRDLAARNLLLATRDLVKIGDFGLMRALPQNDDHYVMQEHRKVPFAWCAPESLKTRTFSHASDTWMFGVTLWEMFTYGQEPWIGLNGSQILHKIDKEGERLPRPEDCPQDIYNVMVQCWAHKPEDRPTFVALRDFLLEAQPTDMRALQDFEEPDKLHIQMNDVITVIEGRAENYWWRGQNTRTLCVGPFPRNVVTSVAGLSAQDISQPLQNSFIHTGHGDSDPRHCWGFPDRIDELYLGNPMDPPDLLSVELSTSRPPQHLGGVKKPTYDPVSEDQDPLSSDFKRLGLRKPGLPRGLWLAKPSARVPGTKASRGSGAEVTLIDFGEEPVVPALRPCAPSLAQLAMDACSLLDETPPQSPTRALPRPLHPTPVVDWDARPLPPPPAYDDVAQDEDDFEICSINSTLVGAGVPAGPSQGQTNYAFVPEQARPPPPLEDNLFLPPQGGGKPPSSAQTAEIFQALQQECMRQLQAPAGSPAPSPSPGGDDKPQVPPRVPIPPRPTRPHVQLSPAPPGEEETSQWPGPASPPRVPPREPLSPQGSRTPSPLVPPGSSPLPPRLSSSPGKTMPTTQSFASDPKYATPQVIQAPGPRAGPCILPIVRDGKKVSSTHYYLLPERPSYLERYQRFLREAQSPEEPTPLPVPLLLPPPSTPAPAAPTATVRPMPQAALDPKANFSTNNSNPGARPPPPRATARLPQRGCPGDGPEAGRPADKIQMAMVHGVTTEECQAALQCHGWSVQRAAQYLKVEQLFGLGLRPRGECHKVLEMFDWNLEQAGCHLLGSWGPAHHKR
Sequence of PI4KB (human) (Q9UBF8 whole entry, looked up): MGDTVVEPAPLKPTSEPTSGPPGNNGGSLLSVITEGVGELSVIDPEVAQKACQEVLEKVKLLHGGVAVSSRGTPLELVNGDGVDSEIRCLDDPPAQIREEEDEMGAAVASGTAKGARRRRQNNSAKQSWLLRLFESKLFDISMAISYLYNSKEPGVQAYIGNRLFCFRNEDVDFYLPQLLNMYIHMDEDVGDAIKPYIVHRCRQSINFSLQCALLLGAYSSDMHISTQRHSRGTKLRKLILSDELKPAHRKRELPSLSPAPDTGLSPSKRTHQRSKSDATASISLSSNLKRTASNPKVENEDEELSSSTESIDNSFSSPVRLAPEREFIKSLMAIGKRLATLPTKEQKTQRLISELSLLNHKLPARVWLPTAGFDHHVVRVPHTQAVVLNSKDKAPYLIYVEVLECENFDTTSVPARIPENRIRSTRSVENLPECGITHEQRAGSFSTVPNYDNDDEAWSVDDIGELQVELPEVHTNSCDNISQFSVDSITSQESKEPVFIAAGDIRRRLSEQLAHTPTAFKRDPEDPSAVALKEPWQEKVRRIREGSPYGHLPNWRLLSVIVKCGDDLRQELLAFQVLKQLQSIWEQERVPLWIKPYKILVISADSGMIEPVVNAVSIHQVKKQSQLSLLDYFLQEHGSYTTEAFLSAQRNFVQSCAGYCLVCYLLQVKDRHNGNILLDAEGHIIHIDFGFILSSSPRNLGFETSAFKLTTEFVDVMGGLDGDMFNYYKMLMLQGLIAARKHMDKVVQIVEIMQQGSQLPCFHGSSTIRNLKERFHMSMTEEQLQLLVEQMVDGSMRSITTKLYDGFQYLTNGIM
Sequence of RAF1 (human) (P04049 whole entry, looked up): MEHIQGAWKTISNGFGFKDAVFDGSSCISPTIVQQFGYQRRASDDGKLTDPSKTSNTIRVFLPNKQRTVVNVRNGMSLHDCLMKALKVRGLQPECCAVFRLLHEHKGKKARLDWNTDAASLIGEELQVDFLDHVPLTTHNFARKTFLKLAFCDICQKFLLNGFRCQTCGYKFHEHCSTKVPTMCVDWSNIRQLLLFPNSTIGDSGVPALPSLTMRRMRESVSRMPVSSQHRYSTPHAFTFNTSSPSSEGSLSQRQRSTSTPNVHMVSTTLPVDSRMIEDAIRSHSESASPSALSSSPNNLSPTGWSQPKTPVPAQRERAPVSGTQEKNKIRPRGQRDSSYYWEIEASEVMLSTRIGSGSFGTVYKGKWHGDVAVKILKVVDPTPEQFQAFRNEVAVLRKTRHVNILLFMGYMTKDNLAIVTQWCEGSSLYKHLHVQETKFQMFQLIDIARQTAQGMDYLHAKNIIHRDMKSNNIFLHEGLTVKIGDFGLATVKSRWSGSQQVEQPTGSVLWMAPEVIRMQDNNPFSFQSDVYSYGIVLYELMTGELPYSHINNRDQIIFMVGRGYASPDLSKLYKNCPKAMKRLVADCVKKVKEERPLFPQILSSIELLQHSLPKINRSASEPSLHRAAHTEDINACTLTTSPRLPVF
Sequence of CDK15 (human) (Q96Q40 whole entry, looked up): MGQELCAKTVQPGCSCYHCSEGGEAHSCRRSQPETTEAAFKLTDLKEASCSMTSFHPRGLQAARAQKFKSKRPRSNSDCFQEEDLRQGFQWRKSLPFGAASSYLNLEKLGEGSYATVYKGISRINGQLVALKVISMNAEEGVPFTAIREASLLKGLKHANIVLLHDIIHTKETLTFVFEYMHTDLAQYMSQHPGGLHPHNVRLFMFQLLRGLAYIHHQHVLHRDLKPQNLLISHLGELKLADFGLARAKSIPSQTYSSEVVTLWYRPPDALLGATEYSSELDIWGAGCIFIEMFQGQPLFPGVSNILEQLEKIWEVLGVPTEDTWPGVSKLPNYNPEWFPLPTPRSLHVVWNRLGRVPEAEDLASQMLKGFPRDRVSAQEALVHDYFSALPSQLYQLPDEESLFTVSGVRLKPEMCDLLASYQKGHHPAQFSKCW

Structure (SMILES)	kinase still bound, per cent of control [1] [%]	kinase still bound, per cent of control [2] [%]	kinase still bound, per cent of control [3] [%]	kinase still bound, per cent of control [4] [%]	kinase still bound, per cent of control [5] [%]	kinase still bound, per cent of control [6] [%]	kinase still bound, per cent of control [7] [%]	kinase still bound, per cent of control [8] [%]	kinase still bound, per cent of control [9]	kinase still bound, per cent of control [10] [%]	kinase still bound, per cent of control [11] [%]	kinase still bound, per cent of control [12] [%]	kinase still bound, per cent of control [13] [%]	kinase still bound, per cent of control [14] [%]	kinase still bound, per cent of control [15] [%]	kinase still bound, per cent of control [16] [%]	kinase still bound, per cent of control [17] [%]	kinase still bound, per cent of control [18] [%]	kinase still bound, per cent of control [19] [%]	kinase still bound, per cent of control [20] [%]	other results
N#Cc1c(NC(=O)c2cccc3ccccc23)sc2c1CCCC2	100	100	98	69	100	95	73	100	100% and 84%	95	100	100	89	56	100	86	93	82	46	100	kinase still bound, per cent of control [21]: 96%; kinase still bound, per cent of control [22]: 88%; kinase still bound, per cent of control [23]: 88%; kinase still bound, per cent of control [24]: 44%; kinase still bound, per cent of control [25]: 100%; kinase still bound, per cent of control [26]: 99%; kinase still bound, per cent of control [27]: 100%; kinase still bound, per cent of control [28]: 100%; kinase still bound, per cent of control [29]: 79%; kinase still bound, per cent of control [30]: 46%; kinase still bound, per cent of control [31]: 100%; kinase still bound, per cent of control [32]: 78%; kinase still bound, per cent of control [33]: 81%; kinase still bound, per cent of control [34]: 86%; kinase still bound, per cent of control [35]: 100%; kinase still bound, per cent of control [36]: 77%; kinase still bound, per cent of control [37]: 52%; kinase still bound, per cent of control [38]: 100%; kinase still bound, per cent of control [39]: 76%; kinase still bound, per cent of control [40]: 100%
O=C(NOC[C@H](O)CO)c1ccc(F)c(F)c1Nc1ccc(I)cc1F	86	100	100	78	100	100	78	100	100% and 80%	100	100	100	96	100	100	100	95	75	6.1	100	kinase still bound, per cent of control [21]: 88%; kinase still bound, per cent of control [22]: 99%; kinase still bound, per cent of control [23]: 94%; kinase still bound, per cent of control [24]: 66%; kinase still bound, per cent of control [25]: 100%; kinase still bound, per cent of control [26]: 56%; kinase still bound, per cent of control [27]: 100%; kinase still bound, per cent of control [28]: 100%; kinase still bound, per cent of control [29]: 98%; kinase still bound, per cent of control [30]: 46%; kinase still bound, per cent of control [31]: 99%; kinase still bound, per cent of control [32]: 84%; kinase still bound, per cent of control [33]: 80%; kinase still bound, per cent of control [34]: 79%; kinase still bound, per cent of control [35]: 100%; kinase still bound, per cent of control [36]: 72%; kinase still bound, per cent of control [37]: 51%; kinase still bound, per cent of control [38]: 100%; kinase still bound, per cent of control [39]: 80%; kinase still bound, per cent of control [40]: 100%
